Our source for the XC50 values is ChEMBL document CHEMBL1157539, “Thousands of chemical starting points for antimalarial lead identification” (Nature, 2010).

This test deals with Plasmodium falciparum. The experiment in a line: GSK_TCMDC: Inhibition of Plasmodium falciparum 3D7 in whole erythrocytes, using parasite LDH activity as an index of growth. The test is classed as functional, organism-based. Particulars: Plasmodium falciparum, 3D7.
Compound `COc1ccc2c(N/N=C/c3ccc([N+](=O)[O-])cc3)ccnc2c1` displayed an XC50 of 337 nM. As for `COc1c(C)[nH]c(C)c(-c2ccc(Oc3cccc(C(F)(F)F)c3)cc2)c1=O`, the figure is 314 nM. The compound `COc1ccc2nc(C)cc(Nc3ccc(Oc4ccc(Cl)cc4)c(Cl)c3)c2c1` came in with an XC50 of 191 nM. With `Cc1[nH]c(C)c(-c2ccc(-c3ccccc3F)nc2)c(=O)c1Br` the figure was 401 nM; with `CCCCCCN1CCC(CNCc2cccc([N+](=O)[O-])c2)CC1`, 720 nM; with `Cc1cc(NCCC(=O)Nc2ccccc2)nc(NCCc2ccccc2)n1`, 852 nM. As for `Cc1cc(N2CCCC2)nc(Nc2ccc(NC(=O)C(C)Oc3ccccc3)cc2)n1` (stereo unspecified), the figure is 1140 nM; as for `CNC(=O)c1cc(NCCCNCc2ccc(Cl)c(C(F)(F)F)c2)nc2ccccc12`, 931 nM.

As for `Cc1cc(N[C@@H](Cc2ccccc2)C(=O)NC2CCCC2)nc(NCC2CCCCC2)n1`, the XC50 stood at 1170 nM. With `Cc1ccc2nc3ccccc3c(NCCN3CCN(C)CC3)c2c1` the figure was 587 nM. With `COC(=O)c1cc(C(=O)CN(Cc2ccccc2)C(C)C)ccc1O` the figure was 183 nM. With `Cn1c(Nc2cc(C(C)(C)C)on2)nc2cc(Nc3ccnc(Nc4cccc(S(=O)(=O)N5CCOCC5)c4)n3)ccc21` the figure was 533 nM. `COC(=O)CN(C(=O)/C=C/c1ccc(Cl)c(Cl)c1)C1CCC(CN2CCC(c3c[nH]c4ccccc34)CC2)CC1` (stereo unspecified): the XC50 was found to be 507 nM.

`O=C(Nc1ccc2ccccc2c1)N1CCC(NCc2cccc([N+](=O)[O-])c2)CC1` showed an XC50 of 855 nM. With `Cc1ccc(N2CCN(C(=O)c3cccc(-c4cncc5nc(-c6ccco6)n(C)c45)c3)CC2)nc1` the figure was 596 nM; with `CS(=O)(=O)NCCCNCc1cccc(-c2csc(-c3nc4ccccc4[nH]3)c2)c1`, 1010 nM; with `O=C(Nc1ccccc1Br)c1cn(-c2ccccc2)nc1-c1cccc([N+](=O)[O-])c1`, 1320 nM.

As for `Cc1cc(NC2CCCC2)nc(Nc2ccccc2C)n1`, the XC50 turned out to be 1350 nM. With `CCOc1ccc(-c2nonc2NC(=O)CC(C)C)cc1OCC` the figure was 977 nM; with `Clc1ccc2c(NN=Cc3cccs3)ccnc2c1`, 922 nM; with `O=C(Nc1nc2cc(S(=O)(=O)NCc3ccc(Cl)c(Cl)c3)ccc2n1CCCN1CCCC1)c1ccc(Cl)cc1`, 939 nM. As for `O=C(NCCN1CCC(c2ccncc2)CC1)c1ccc(Nc2nccc(Nc3ccc(Oc4ccccc4)cc3)n2)cc1`, the figure is 724 nM. Consider `CC1(C)NC(N)=NC(=N)N1OCCCOc1cccc2ccccc12`, for which the XC50 came to 3.2 nM. With `O=S(=O)(NCCN1CCCC1)c1ccc(-c2ccc(CNCc3ccc(F)cc3)cc2)cc1F` the figure was 1280 nM; with `COc1ccc(-c2cc(-c3nc4cc(C(=O)N5CCOCC5)ccc4[nH]3)c(=O)n(C)c2)cc1OC`, 863 nM. As for `Cc1nn(-c2ccccc2)nc1C(=O)N(Cc1ccc(-c2ccc(CNCCc3ccc(S(C)(=O)=O)cc3)cn2)cc1)C(C)CN(C)C` (stereo unspecified), the figure is 682 nM; as for `CC(CNc1nc(NCC(c2ccccc2)c2ccccc2)c2nc[nH]c2n1)c1ccccc1` (stereo unspecified), 948 nM. Compound `NS(=O)(=O)c1cccc(Br)c1` displayed an XC50 of 888 nM. As for `Cc1ccc(Nc2nc(C)cc(NC3CCN(C)CC3)n2)cc1`, the figure is 497 nM; as for `N=C(N)NCCCC(=O)NCC(N)=O`, 165 nM.

Regarding `Cc1cc(N)ncc1-c1ccc(NC(=O)Nc2cc(C(F)(F)F)ccc2F)cc1`, the XC50 is 698 nM. The compound `Cc1ccccc1C1CCN(c2ncc(C(=O)Nc3ccccc3)cc2Cl)CC1` showed an XC50 of 1010 nM. With `O=S(=O)(c1ccc2cc[nH]c2c1)N1CCC[C@@H]1CCN1CCC(c2c[nH]c3cnccc23)CC1` the figure was 1020 nM; with `FC(F)(F)c1cccc(CCNc2nccc(NCc3ccc(Cl)cc3Cl)n2)c1`, 858 nM; with `COc1ccc(NC(=O)/C=C/c2ccccc2Cl)cc1OCCN1CCC(c2nc3ccccc3[nH]2)CC1`, 858 nM. `O=C(Nc1ccc(C(=O)Oc2cccc3ccccc23)cc1)N[C@@H](Cc1ccc(O)cc1)C(=O)NC1CCN(Cc2ccc(O)cc2)C1` (stereo partly specified) returned an XC50 of 906 nM. As for `CC(C)COc1ccc(Cl)cc1Nc1nc(-c2nc3ccccc3[nH]2)cs1`, the figure is 877 nM; as for `O=C(NCCCCN1CCC(c2ccc(OC(F)(F)F)cc2)CC1)c1ccc(NC(=O)c2ccc(Cl)cc2)cc1`, 629 nM. With `O=C(NCCCCN1CC=C(c2ccc3c(c2OCC2CC2)CCCC3)CC1)c1ccc(-c2ccc(C(F)(F)F)cc2)cc1` the figure was 540 nM. As for `O=S(=O)(NCCN1CCCC1)c1cccc(-c2ccc(CNC3Cc4ccccc4C3)cc2)c1`, the figure is 660 nM. `Cc1cnc(C(=O)Nc2cccc(-c3cccc(-c4nc5cc(F)ccc5[nH]4)c3)c2)cn1` came in with an XC50 of 771 nM. As for `Fc1ccc2[nH]c(-c3ccc(-c4ccc(CNCC5CCCO5)cc4)cc3)nc2c1` (stereo unspecified), the figure is 440 nM; as for `COc1ccc(C2C(C(=O)Nc3ccc(C)cc3Br)c3ccccc3C(=O)N2C)cc1` (stereo unspecified), 941 nM. The compound `Cc1nc(-c2cccc(Nc3nccc(NCC(O)c4cccc(C(F)(F)F)c4)n3)c2)cs1` (stereo unspecified) returned an XC50 of 627 nM. With `CN(C)CCNC(=O)[C@H](Cc1ccccc1)NC(=O)c1ccc(O)c(-c2ccc(Cl)c(Cl)c2)c1` the figure was 715 nM; with `COc1ccc(/N=[N+](\[O-])c2ccccc2/[N+]([O-])=N/c2ccc(OC)cc2)cc1`, 987 nM. With `CCCCOc1ccc(C(O)C(CN2CCCCC2)c2ccccc2)cc1` (stereo unspecified) the figure was 893 nM. With `Cc1ccc(NC(=O)c2ccc3ncccc3c2)cc1OC1CCN(CCC(C)C)CC1`, the XC50 was 694 nM. With `Cc1cccc2nc(-c3cccc(-c4cccc(CNCCc5ccncc5)c4)c3)[nH]c12` the figure was 139 nM. As for `CCOC(=O)c1ccc2[nH]c(-c3ccc(C(=O)NCc4ccc(C(C)(C)C)cc4)cc3)nc2c1`, the figure is 847 nM; as for `Cn1cc(CN2CCC(OC(c3ccccc3)c3ccc(Cl)cc3)CC2)cn1` (stereo unspecified), 839 nM; as for `COc1cc(-c2cc3cc(Cl)c(Cl)cc3[nH]2)ccc1C(=O)NCCC1CCCN1C` (stereo unspecified), 969 nM. With `CC1(C)NC(N)=NC(=N)N1OCCCOc1ccccc1Cl` the figure was 3.2 nM; with `CCOC(=O)c1ccc(-c2cnoc2-c2cc(CC)c(OC)cc2O)o1`, 275 nM. The compound `CCn1c(-c2nonc2N)nc2c(-c3cccc(NC(=O)Nc4ccccc4Cl)c3)ncc(OCCCN)c21` came in with an XC50 of 671 nM. Take `COCCNCc1cccc(-c2ccc3c(Nc4cc(O)c(Cl)cc4F)ccnc3c2)c1`: the XC50 stood at 114 nM.

With `O=C(Nc1cccc(-c2cccc(CN3CCCC3)c2)c1)c1ccc(Cl)cc1`, the XC50 was 684 nM. As for `COC(=O)c1ccc2nc(-c3ccc(C(=O)NCc4ccc(Cl)c(Cl)c4)cc3)[nH]c2c1`, the figure is 852 nM; as for `COCCN1CCC(CNCC(C)(C)c2nc(-c3ccc(Cl)c(O)c3)c(-c3ccncc3)[nH]2)CC1`, 753 nM. With `N#CCOc1c(C2CCN(CCCCNC(=O)c3ccc(-c4ccc(C(F)(F)F)cc4)cc3)CC2)ccc2c1CCCC2` the figure was 762 nM.

Compound `Cc1cc(-c2ccnc(Nc3cccc(C#N)c3)n2)cc(C)c1O` yielded an XC50 of 924 nM. As for `CCN1CCN(C(=O)NC(C(=O)N2CCCC(COc3ccc(Cc4ccccc4)cc3)C2)c2cccs2)C(=O)C1=O` (stereo unspecified), the figure is 479 nM; as for `O=C(Nc1ccc2c(c1)CCN(C1CCC1)CC2)c1cn(-c2ccccc2)nc1-c1ccccc1`, 808 nM; as for `O=C(Cc1ccc(Nc2nccc(Nc3cccc4[nH]ncc34)n2)cc1)Nc1ccc(C(F)(F)F)cc1`, 888 nM. For `c1ccc(CN2CCC(NCc3ccccc3-c3cccc(CNCc4ccc5c(c4)OCO5)c3)CC2)cc1`, the XC50 stood at 573 nM.

`COc1ccc(CN2CCN(C(=O)c3cccs3)CC2)c(O)c1` had an XC50 of 838 nM. As for `COc1cc(Nc2nccc(N3CCC(NS(=O)(=O)c4ccc(NC(C)=O)cc4)CC3)n2)cc(OC)c1OC`, the figure is 965 nM; as for `COc1cc(SC)c(Br)cc1-c1nc2ccncc2[nH]1`, 1100 nM. As for `CCn1c(-c2nonc2N)nc2c(-c3cccc(NC(=O)Nc4cccc(OC)c4)c3)ncc(OCCCN)c21`, the figure is 769 nM; as for `CN1CCN(CCCN(C(=O)Nc2cc(C(F)(F)F)cc(C(F)(F)F)c2)c2ccccc2Cc2ccccc2)CC1`, 1130 nM.

Take `COc1ccc2ccc(OC)c(CNCCCCCCNCc3c(OC)ccc4ccc(OC)cc34)c2c1`: the XC50 came to 699 nM. With `CCOC(=O)C(CO)NC(=O)c1ccc([N+](=O)[O-])o1` (stereo unspecified), the XC50 worked out at 289 nM. Compound `Cc1ccc2oc3cc(-c4nnn[nH]4)ccc3c(=O)c2c1` gave an XC50 of 89.4 nM. For `Cc1cccc2nc(-c3cccc(-c4cccc(NC(=O)CCc5c[nH]cn5)c4)c3)[nH]c12`, the XC50 stood at 553 nM. As for `O=C(Nc1cccnc1)c1cc(C(=O)Nc2cccnc2)cc([N+](=O)[O-])c1`, the figure is 1120 nM; as for `CCCNC[C@@H](O)[C@H](Cc1ccccc1)NC(=O)c1cc2c3c(c1)c(CC)cn3CCS(=O)(=O)N2C`, 101 nM; as for `CCCc1cn2c3c(cc(C(=O)N[C@@H](Cc4ccccc4)[C@H](O)CNC4CCCCC4)cc13)N(C)S(=O)(=O)CC2`, 66.9 nM. As for `COc1cc(Cc2c(C)nc3nc(N)nc(N)c3c2C)c(Br)c(OC)c1OC`, the figure is 404 nM; as for `Cc1cccc2nc(-c3cccc(-c4cccc(NC(=O)c5cncn5C)c4)c3)[nH]c12`, 167 nM. As for `Cc1cccc2nc(-c3cccc(-c4cccc(NC(=O)CC5NC(=O)c6ccccc65)c4)c3)[nH]c12` (stereo unspecified), the figure is 1030 nM. In the case of `O=C(Nc1cccc(Cl)c1)N(CCCn1ccnc1)Cc1csc(-c2ccc(CNCc3ccccc3)cc2)n1`, the XC50 came out at 538 nM. As for `COC(C(=O)OCCC1CCCN1C)(c1ccccc1)c1ccccc1` (stereo unspecified), the figure is 970 nM. Compound `O=C(CCC1CCCCC1=O)c1ccccc1` (stereo unspecified) showed an XC50 of 766 nM. Turning to `O=C(Nc1ccc(S(=O)(=O)NCCCN2CCOCC2)cc1)c1cc(-c2ccccc2)[nH]n1`, the XC50 amounted to 769 nM. As for `c1ccc(CCNCc2cccc(-c3ccccc3CNCc3ccc4c(c3)OCO4)c2)nc1`, the figure is 968 nM. As for `Clc1cccc(C23N/C(=N\c4nc5ccccc5[nH]4)NC2(c2ccccc2)N/C(=N\c2nc4ccccc4[nH]2)N3)c1` (stereo unspecified), the figure is 519 nM.
